PubChem BioAssay AID330 (DTP/NCI, 2004)
Inconclusive results and toxic doses are left out. The calls were made as follows: active = survival T/C of 150% or more; inactive = T/C below 125% in these data.

Test system: P388 leukemia ip, CD2F1 mice, survival T/C
Test: NCI In Vivo Anticancer Drug Screen. Data for tumor model P388 Leukemia (intraperitoneal) in CD2F1 (CDF1) mice
Conditions: endpoint: median survival time, higher = longer survival
In short: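 Mice carrying the transplanted tumor received test compound or vehicle. Survival was recorded in each group, and the value is the treated-group measurement divided by that of the vehicle-treated control group.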

Measured: T/C

CC1(C)OC(C(F)(F)F)(C(F)(F)F)c2cc(C(C)(C)C)ccc2S1
inactive: dose: 60.0 mg/kg/injection, schedule: Q01DX005 (ip), vehicle: saline with Tween-80 98 % of control | dose: 120.0 mg/kg/injection, schedule: Q01DX005 (ip), vehicle: saline with Tween-80 98 % of control | dose: 240.0 mg/kg/injection, schedule: Q01DX005 (ip), vehicle: saline with Tween-80 102 % of control

O=C(O)c1ccccc1C(c1ccccc1)c1ccccc1
inactive: dose: 25.0 mg/kg/injection, schedule: Q01DX009 (ip), vehicle: saline with Tween-80 100 % of control | dose: 50.0 mg/kg/injection, schedule: Q01DX009 (ip), vehicle: saline with Tween-80 100 % of control | dose: 100.0 mg/kg/injection, schedule: Q01DX009 (ip), vehicle: saline with Tween-80 100 % of control

O=c1c2ncn(C3OC(CO)C(O)C3O)c2nc2n(C3OC(CO)C(O)C3O)cnn12 (stereo not drawn)
inactive: dose: 60.0 mg/kg/injection, schedule: Q01DX005 (ip), vehicle: saline 109 % of control | dose: 120.0 mg/kg/injection, schedule: Q01DX005 (ip), vehicle: saline 117 % of control | dose: 240.0 mg/kg/injection, schedule: Q01DX005 (ip), vehicle: saline 122 % of control

COc1ccc(CC2c3cc(OC)c(OC)c(OC)c3CC[N+]2(C)C)cc1Oc1ccc(CC2c3cc4c(c(OC)c3CCN2C)OCO4)cc1 (stereo not drawn)
inactive: dose: 3.13 mg/kg/injection, schedule: Q04DX002 (ip), vehicle: saline 99 % of control | dose: 6.25 mg/kg/injection, schedule: Q04DX002 (ip), vehicle: saline 103 % of control

Cc1ccccc1NC(=O)CCC(=O)NS(C)(=O)=O
inactive: dose: 100.0 mg/kg/injection, schedule: Q01DX001 (ip), vehicle: saline with Tween-80 102 % of control | dose: 200.0 mg/kg/injection, schedule: Q01DX001 (ip), vehicle: saline with Tween-80 95 % of control | dose: 400.0 mg/kg/injection, schedule: Q01DX001 (ip), vehicle: saline with Tween-80 95 % of control

CNC(=S)N=Nc1c(O)[nH]c2ccccc12
inactive: dose: 50.0 mg/kg/injection, schedule: Q01DX009 (ip), vehicle: saline 91 % of control | dose: 100.0 mg/kg/injection, schedule: Q01DX009 (ip), vehicle: saline 99 % of control | dose: 200.0 mg/kg/injection, schedule: Q01DX009 (ip), vehicle: saline 91 % of control

O=[N+]([O-])c1ccc(/C=C/Br)o1
inactive: dose: 50.0 mg/kg/injection, schedule: Q01DX009 (ip), vehicle: suspension in saline 88 % of control | dose: 100.0 mg/kg/injection, schedule: Q01DX009 (ip), vehicle: suspension in saline 95 % of control | dose: 200.0 mg/kg/injection, schedule: Q01DX009 (ip), vehicle: suspension in saline 103 % of control

Cc1ccc(N2C(=S)N(c3cccc(Cl)c3Cl)C(=O)C(N=Nc3cccc(Cl)c3Cl)C2O)cc1 (stereo not drawn)
inactive: dose: 100.0 mg/kg/injection, schedule: Q01DX001 (ip), vehicle: Klucel (hydroxypropylcellulose) (HPC) 97 % of control | dose: 200.0 mg/kg/injection, schedule: Q01DX001 (ip), vehicle: Klucel (hydroxypropylcellulose) (HPC) 98 % of control | dose: 400.0 mg/kg/injection, schedule: Q01DX001 (ip), vehicle: Klucel (hydroxypropylcellulose) (HPC) 97 % of control

O=C(O)c1[nH]c(=O)[nH]c(=O)c1CO
inactive: dose: 6.25 mg/kg/injection, schedule: Q01DX009 (ip), vehicle: distilled water + Tween-80 99 % of control | dose: 12.5 mg/kg/injection, schedule: Q01DX009 (ip), vehicle: distilled water + Tween-80 100 % of control | dose: 25.0 mg/kg/injection, schedule: Q01DX009 (ip), vehicle: distilled water + Tween-80 103 % of control | dose: 50.0 mg/kg/injection, schedule: Q01DX009 (ip), vehicle: distilled water + Tween-80 110 % of control | dose: 100.0 mg/kg/injection, schedule: Q01DX009 (ip), vehicle: distilled water + Tween-80 100 % of control | dose: 200.0 mg/kg/injection, schedule: Q01DX009 (ip), vehicle: distilled water + Tween-80 95 % of control | dose: 400.0 mg/kg/injection, schedule: Q01DX009 (ip), vehicle: distilled water + Tween-80 104 % of control

C=C1C(=O)OC2CC1C(OC(C)=O)CC1(C)OC1CCC1(C)OC1CCC2(C)O (stereo not drawn)
inactive: dose: 6.26 mg/kg/injection, schedule: Q01DX009 (ip), vehicle: Klucel (hydroxypropylcellulose) (HPC) 119 % of control | dose: 12.5 mg/kg/injection, schedule: Q01DX009 (ip), vehicle: Klucel (hydroxypropylcellulose) (HPC) 117 % of control | dose: 25.0 mg/kg/injection, schedule: Q01DX009 (ip), vehicle: Klucel (hydroxypropylcellulose) (HPC) 123 % of control

O=C1NC(=O)C(O)(C2=C(O)CCCC2=O)C(=O)N1
inactive: dose: 50.0 mg/kg/injection, schedule: Q01DX005 (ip), vehicle: saline with Tween-80 99 % of control | dose: 100.0 mg/kg/injection, schedule: Q01DX005 (ip), vehicle: saline with Tween-80 103 % of control | dose: 200.0 mg/kg/injection, schedule: Q01DX005 (ip), vehicle: saline with Tween-80 94 % of control

Cn1nc(-c2ccc(S(=O)(=O)F)cc2)s/c1=N/NC(=O)c1ccccc1
inactive: dose: 60.0 mg/kg/injection, schedule: Q01DX005 (ip), vehicle: Klucel + Tween-80 87 % of control | dose: 120.0 mg/kg/injection, schedule: Q01DX005 (ip), vehicle: Klucel + Tween-80 92 % of control
